# Article PMC12298351, “Novel 3,19-(N-Phenyl-3-(4-fluorophenyl)-pyrazole) Acetal of Andrographolide Promotes Cell Cycle Arrest and Apoptosis in MDA-MB-231 Breast Cancer Cells” (Pharmaceuticals, 2025)
# Assays:
# NCI-H522 = details: for Total growth inhibition (TGI) / CC50: NCI-H522, Non-Small Cell Lung; for GI50: NCI-H522, Non-Small-Cell Lung; for CC50: read-out: 50% lethal concentration (LC50)
# SF-539 = details: SF-539, CNS; for CC50: read-out: 50% lethal concentration (LC50)
# OVCAR-4 = format: cell-based; details: OVCAR-4, Ovarian; for CC50: read-out: 50% lethal concentration (LC50)
# SK-OV-3 = details: SK-OV-3, Ovarian; for CC50: read-out: 50% lethal concentration (LC50)
# RPMI-8226 = details: RPMI-8226, Leukemia; for CC50: read-out: 50% lethal concentration (LC50)
# OVCAR-3 = details: OVCAR-3, Ovarian; for CC50: read-out: 50% lethal concentration (LC50)
# HCT-15 = details: HCT-15, Colon; for CC50: read-out: 50% lethal concentration (LC50)
# NCI-H23 = details: for Total growth inhibition (TGI) / CC50: NCI-H23, Non-Small Cell Lung; for GI50: NCI-H23, Non-Small-Cell Lung; for CC50: read-out: 50% lethal concentration (LC50)
# COLO 205 = details: COLO 205, Colon
# UACC-62 = details: UACC-62, Melanoma; for CC50: read-out: 50% lethal concentration (LC50)
# HCT-116 = format: cell-based; details: HCT-116, Colon; for CC50: read-out: 50% lethal concentration (LC50)
# U251 = details: U251, CNS
# K-562 = details: K-562, Leukemia; for CC50: read-out: 50% lethal concentration (LC50)
# LOX IMVI = details: for GI50 / Total growth inhibition (TGI): Melanoma; for CC50: read-out: 50% lethal concentration (LC50), Melanoma
# MDA-MB-468 = details: MDA-MB-468, Breast; for CC50: read-out: 50% lethal concentration (LC50)
# M14 = format: cell-based; details: M14, Melanoma
# DU-145 = details: DU-145, Prostate
# UACC-257 = details: UACC-257, Melanoma
# NCI/ADR-RES = details: for GI50 / Total growth inhibition (TGI): Ovarian
# [1] = DPPH radical scavenging assay; details: 25 µM test compound, 0.1 mM DPPH, acetonitrile, 30 min
# Outline: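 Compounds at 25 µM in acetonitrile mixed 1:2 with 0.1 mM DPPH in acetonitrile, kept 30 min in the dark at room temperature. Absorbance read at 517 nm; % scavenging = (Ac − As)/Ac × 100, Ac being DPPH blank. Ascorbic acid positive control.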
# MALME-3M = details: for GI50 / Total growth inhibition (TGI): Melanoma
# SK-MEL-28 = details: SK-MEL-28, Melanoma; for CC50: read-out: 50% lethal concentration (LC50)
# A549/ATCC = details: for Total growth inhibition (TGI): Non-Small Cell Lung; for GI50: Non-Small-Cell Lung; for CC50: read-out: 50% lethal concentration (LC50), Non-Small Cell Lung
# MOLT-4 = details: MOLT-4, Leukemia; for CC50: read-out: 50% lethal concentration (LC50)
# OVCAR-5 = details: OVCAR-5, Ovarian; for CC50: read-out: 50% lethal concentration (LC50)
# PC-3 = details: PC-3, Prostate; for CC50: read-out: 50% lethal concentration (LC50)
# HT29 = details: HT29, Colon; for CC50: read-out: 50% lethal concentration (LC50)
# OVCAR-8 = details: OVCAR-8, Ovarian; for CC50: read-out: 50% lethal concentration (LC50)
# [2] = read-out: 50% lethal concentration (LC50)
structure (smiles),measurement,setting,value
C=C1CCC2C3(C)COC(c4cn(-c5ccccc5)nc4-c4ccccc4)OC3CCC2(C)C1CC=C1C(=O)OCC1O (centres unmarked) [1a],Total growth inhibition (TGI),NCI-H522,3.86 µM
same,GI50,NCI-H522,1.9 µM
same,CC50,NCI-H522,7.85 µM
same,GI50,SF-539,1.84 µM
same,Total growth inhibition (TGI),SF-539,3.26 µM
same,CC50,SF-539,5.77 µM
same,GI50,OVCAR-4,2.31 µM
same,CC50,OVCAR-4,> 100 µM
same,GI50,SK-OV-3,1.77 µM
same,Total growth inhibition (TGI),SK-OV-3,18.7 µM
same,CC50,SK-OV-3,91.1 µM
same,GI50,RPMI-8226,2.02 µM
same,Total growth inhibition (TGI),RPMI-8226,8.62 µM
same,CC50,RPMI-8226,> 100 µM
same,GI50,OVCAR-3,1.82 µM
same,Total growth inhibition (TGI),OVCAR-3,3.35 µM
same,CC50,OVCAR-3,6.16 µM
same,GI50,HCT-15,1.72 µM
same,Total growth inhibition (TGI),HCT-15,3.45 µM
same,CC50,HCT-15,6.91 µM
same,Total growth inhibition (TGI),NCI-H23,3.08 µM
same,GI50,NCI-H23,1.69 µM
same,CC50,NCI-H23,5.64 µM
same,GI50,COLO 205,2.01 µM
same,Total growth inhibition (TGI),COLO 205,3.57 µM
same,CC50,COLO 205; [2],6.31 µM
same,GI50,UACC-62,1.65 µM
same,Total growth inhibition (TGI),UACC-62,3.2 µM
same,CC50,UACC-62,6.22 µM
same,GI50,HCT-116,1.61 µM
same,Total growth inhibition (TGI),HCT-116,3.55 µM
same,CC50,HCT-116,7.83 µM
same,GI50,U251,1.84 µM
same,Total growth inhibition (TGI),U251,3.71 µM
same,CC50,U251; [2],7.48 µM
same,GI50,K-562,2.97 µM
same,Total growth inhibition (TGI),K-562,> 100 µM
same,CC50,K-562,> 100 µM
same,GI50,LOX IMVI,1.54 µM
same,Total growth inhibition (TGI),LOX IMVI,3 µM
same,CC50,LOX IMVI,5.85 µM
same,GI50,MDA-MB-468,1.69 µM
same,Total growth inhibition (TGI),MDA-MB-468,3.34 µM
same,CC50,MDA-MB-468,6.58 µM
same,GI50,M14,1.81 µM
same,LC50 (50% lethal concentration),M14,7.23 µM
same,Total growth inhibition (TGI),M14,3.62 µM
same,GI50,DU-145,2.05 µM
same,Total growth inhibition (TGI),DU-145,4.16 µM
same,GI50,UACC-257,1.9 µM
same,Total growth inhibition (TGI),UACC-257,3.8 µM
same,CC50,UACC-257; [2],7.62 µM
same,GI50,NCI/ADR-RES,4.75 µM
same,Total growth inhibition (TGI),NCI/ADR-RES,5.31 µM
same,% DPPH radical scavenging activity,[1],58.66%
same,GI50,MALME-3M,1.73 µM
same,Total growth inhibition (TGI),MALME-3M,3.18 µM
same,CC50,"MALME-3M; read-out: 50% lethal concentration (LC50), Melanoma",5.88 µM
same,GI50,SK-MEL-28,1.77 µM
same,Total growth inhibition (TGI),SK-MEL-28,3.38 µM
same,CC50,SK-MEL-28,6.45 µM
same,Total growth inhibition (TGI),A549/ATCC,7.11 µM
same,GI50,A549/ATCC,2.49 µM
same,CC50,A549/ATCC,> 100 µM
same,GI50,MOLT-4,1.97 µM
same,Total growth inhibition (TGI),MOLT-4,> 100 µM
same,CC50,MOLT-4,> 100 µM
same,GI50,OVCAR-5,1.86 µM
same,CC50,OVCAR-5,8.71 µM
same,GI50,PC-3,1.95 µM
same,Total growth inhibition (TGI),PC-3,4.7 µM
same,CC50,PC-3,66.9 µM
same,GI50,HT29,2.37 µM
same,Total growth inhibition (TGI),HT29,6.77 µM
same,CC50,HT29,> 100 µM
same,GI50,OVCAR-8,1.81 µM
same,Total growth inhibition (TGI),OVCAR-8,4.02 µM
same,CC50,OVCAR-8,> 100 µM
C=C1CCC2C3(C)COC(c4cn(-c5ccccc5)nc4-c4cccc(Cl)c4)OC3CCC2(C)C1CC=C1C(=O)OCC1O (centres unmarked) [1d],Total growth inhibition (TGI),NCI-H522,2.95 µM
same,GI50,NCI-H522,1.54 µM
same,CC50,NCI-H522,5.65 µM
same,GI50,SF-539,1.63 µM
same,Total growth inhibition (TGI),SF-539,3.02 µM
same,CC50,SF-539,5.57 µM
same,GI50,OVCAR-4,2.09 µM
same,CC50,OVCAR-4,> 100 µM
same,GI50,SK-OV-3,5.86 µM
same,Total growth inhibition (TGI),SK-OV-3,33.4 µM
same,CC50,SK-OV-3,> 100 µM
same,GI50,RPMI-8226,1.38 µM
same,Total growth inhibition (TGI),RPMI-8226,> 100 µM
same,CC50,RPMI-8226,> 100 µM
same,GI50,OVCAR-3,1.6 µM
same,Total growth inhibition (TGI),OVCAR-3,3.09 µM
same,CC50,OVCAR-3,5.95 µM
same,GI50,HCT-15,1.58 µM
same,Total growth inhibition (TGI),HCT-15,3.47 µM
same,CC50,HCT-15,7.64 µM
same,Total growth inhibition (TGI),NCI-H23,3.82 µM
same,GI50,NCI-H23,1.75 µM
same,CC50,NCI-H23,8.31 µM
same,GI50,COLO 205,1.98 µM
same,Total growth inhibition (TGI),COLO 205,4.24 µM
same,GI50,UACC-62,1.71 µM
same,Total growth inhibition (TGI),UACC-62,3.42 µM
same,CC50,UACC-62,6.83 µM
same,GI50,HCT-116,1.04 µM
same,Total growth inhibition (TGI),HCT-116,3.48 µM
same,CC50,HCT-116,45.2 µM
same,GI50,U251,1.59 µM
same,Total growth inhibition (TGI),U251,3 µM
same,GI50,K-562,2.41 µM
same,CC50,K-562,> 100 µM
same,GI50,LOX IMVI,1.61 µM
same,Total growth inhibition (TGI),LOX IMVI,2.97 µM
same,CC50,LOX IMVI,5.5 µM
same,GI50,MDA-MB-468,1.74 µM
same,Total growth inhibition (TGI),MDA-MB-468,3.31 µM
same,CC50,MDA-MB-468,6.3 µM
same,GI50,M14,1.69 µM
same,Total growth inhibition (TGI),M14,3.88 µM
same,GI50,DU-145,1.88 µM
same,Total growth inhibition (TGI),DU-145,3.98 µM
same,CC50,DU-145; [2],8.43 µM
same,GI50,UACC-257,1.77 µM
same,Total growth inhibition (TGI),UACC-257,3.57 µM
same,GI50,NCI/ADR-RES,1.88 µM
same,Total growth inhibition (TGI),NCI/ADR-RES,4.77 µM
same,CC50,"NCI/ADR-RES; read-out: 50% lethal concentration (LC50), Ovarian",> 100 µM
same,% DPPH radical scavenging activity,[1],59.32%
same,GI50,MALME-3M,1.47 µM
same,Total growth inhibition (TGI),MALME-3M,2.85 µM
same,GI50,SK-MEL-28,1.8 µM
same,Total growth inhibition (TGI),SK-MEL-28,3.37 µM
same,CC50,SK-MEL-28,6.33 µM
same,Total growth inhibition (TGI),A549/ATCC,11.3 µM
same,GI50,A549/ATCC,2.82 µM
same,CC50,A549/ATCC,69.1 µM
same,GI50,MOLT-4,1.14 µM
same,Total growth inhibition (TGI),MOLT-4,3.82 µM
same,CC50,MOLT-4,> 100 µM
same,GI50,OVCAR-5,1.78 µM
same,Total growth inhibition (TGI),OVCAR-5,4.21 µM
same,CC50,OVCAR-5,7.73 µM
same,GI50,PC-3,2.07 µM
same,CC50,PC-3,> 100 µM
same,GI50,HT29,1.49 µM
same,Total growth inhibition (TGI),HT29,3.13 µM
same,CC50,HT29,6.57 µM
same,GI50,OVCAR-8,1.53 µM
same,Total growth inhibition (TGI),OVCAR-8,3.44 µM
same,CC50,OVCAR-8,> 100 µM
